The record followed here is patent US10611750B2, “Tetrahydroquinoline compositions as bet bromodomain inhibitors” (FORMA Therapeutics, Inc., priority 2013, dated 2020).

The target in test [1] is T1, BRD4 Bromodomain 1 (BRD4 BD1) (Homo sapiens, UniProt O60885).
T1 construct: 44-168 and BRD4 BD2
The test can be described thus: AlphaScreen binding assay, BRD4 BD1. Conditions: His-tagged BRD4 BD1 50 nM, biotinylated H4 (1-21) K5/8/12/16 tetra-acetylated peptide 50 nM, compounds listed under IC50 range headings. The gist of the method:
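Compound dilution series were mixed with His-tagged BRD4 bromodomain and biotinylated tetra-acetylated H4 (1-21) peptide at pH 7.3 (BD1 and peptide at 50 nM, BD2 and peptide at 100 nM). Donor and acceptor beads were then added, and plates were equilibrated at least 1 h before reading. IC50 values were fitted with a four-parameter logistic model.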

Test [2] has as its system acute myelocytic leukemia (AML) cell line MV4-11. Briefly: Oncology cell growth assay (3-day proliferation, CellTiter-Glo). In kind it is cell-based. The note with it: Homo sapiens, MV4-11, 72 h, MV4-11 cells, 3000 cells/well, compounds listed under IC50 range headings, read-out: MV411 IC50 (gIC50, inhibition of proliferation). The gist of the method:
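MV4-11 AML cells (RPMI 1640, 10% FBS) plated at 3000 cells/well and exposed 72 h to compound at final 10 to 0.0045 μM (3-fold series). Viability read by CellTiter-Glo luminescence; gIC50 from four-parameter logistic fit between DMSO control and no-cell background.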
For orientation: ATP-based viability assays read luminescence as a measure of living cells.

Structures are written as SMILES.

Consider `C[C@H]1CCc2c(ccc(-c3cn(C)nn3)c2Oc2ccc(F)cc2)N1C(=O)C1CC1` [I-236, (S)-cyclopropyl(5-(4-fluorophenoxy)-2-methyl-6-(1-methyl-1H-1,2,3-triazol-4-yl)-3,4-dihydroquinolin-1 (2H)-yl)methanone], for which the IC50 in test [1] was 100 to 1000 nM; in test [2], under 500 nM.
The like results for `C[C@H]1CCc2c(Oc3ccccc3)c(-c3cn[nH]c3)cc(F)c2N1C(=O)C1CC1` [I-238, (S)-cyclopropyl(8-fluoro-2-methyl-5-phenoxy-6-(1H-pyrazol-4-yl)-3,4-dihydroquinolin-1(2H)-yl)methanone] were, in that order, 1000 to 10000 nM and under 500 nM.
Taken in the same sequence, the figures for `COC(=O)N1c2c(F)cc(-c3cnn(C4CC4)c3)c(Oc3ccccc3)c2CC[C@@H]1C` [I-239, (S)-methyl 6-(1-cyclopropyl-1H-pyrazol-4-yl)-8-fluoro-2-methyl-5-phenoxy-3,4-dihydroquinoline-1(2H)-carboxylate] were 1000 to 10000 nM and under 500 nM.
Taken in the same sequence, the figures for `COC(=O)N1c2c(F)cc(-c3cn[nH]c3)c(Oc3ccccc3)c2CC[C@@H]1C` [I-240, (S)-methyl 8-fluoro-2-methyl-5-phenoxy-6-(1H-pyrazol-4-yl)-3,4-dihydroquinoline-1(2H)-carboxylate] were 100 to 1000 nM and under 500 nM.
`CC(=O)N1c2c(F)cc(-c3cnn(C4CC4)c3)c(Oc3ccccc3)c2CC[C@@H]1C` [I-241, (S)-1-(6-(1-cyclopropyl-1H-pyrazol-4-yl)-8-fluoro-2-methyl-5-phenoxy-3,4-dihydroquinolin-1(2H)-yl)ethanone]: the results for the IC50 in test [1] and in test [2] were 100 to 1000 nM and under 500 nM, respectively.
The like results for `CC(=O)N1c2c(F)cc(-c3cn[nH]c3)c(Oc3ccccc3)c2CC[C@@H]1C` [I-242, (S)-1-(8-fluoro-2-methyl-5-phenoxy-6-(1H-pyrazol-4-yl)-3,4-dihydroquinolin-1(2H)-yl)ethanone] were, in that order, 100 to 1000 nM and under 500 nM.
The like results for `C[C@H]1CCc2c(ccc(C3CC3)c2Oc2ccccc2)N1C(=O)C1CC1` [I-243, (S)-cyclopropyl(6-cyclopropyl-2-methyl-5-phenoxy-3,4-dihydroquinolin-1 (2H)-yl) methanone] were, in that order, 100 to 1000 nM and under 500 nM.
The like results for `COC(=O)N1c2ccc(C3CC3)c(Oc3ccccc3)c2CC[C@@H]1C` [I-244, (S)-methyl 6-cyclopropyl-2-methyl-5-phenoxy-3,4-dihydroquinoline-1(2H)-carboxylate] were, in that order, at least 10000 nM and over 1000 nM.
For the compound `COC(=O)N1c2ccc(-c3cnn(C4CC5CN(C)CC5C4)c3)c(OC3CCC3)c2CC[C@@H]1C` (stereo partly drawn) [I-248, (2S)-methyl 5-cyclobutoxy-2-methyl-6-(1-(2-methyl-octahydrocyclopenta[c]pyrrol-5-yl)-1H-pyrazol-4-yl)-3,4-dihydroquinoline-1(2H)-carboxylate], the IC50 in test [1] is 100 to 1000 nM; in test [2], under 500 nM.
The like results for `COC(=O)N1c2ccc(-c3cnn(C4CC5CN(C)CC5C4)c3)c(Oc3ccc(F)cc3)c2CC[C@@H]1C` (stereo partly drawn) [I-250, (2S)-methyl 5-(4-fluorophenoxy)-2-methyl-6-(1-(2-methyl-octahydrocyclopenta[c]pyrrol-5-yl)-1H-pyrazol-4-yl)-3,4-dihydroquinoline-1(2H)-carboxylate] were, in that order, 100 to 1000 nM and under 500 nM.
The like results for `C[C@H]1CCc2c(ccc(-c3cnn(C4CCNCC4)c3)c2Oc2ccccc2F)N1C(=O)C1CC1` [I-260, (S)-cyclopropyl(5-(2-fluorophenoxy)-2-methyl-6-(1-(piperidin-4-yl)-1H-pyrazol-4-yl)-3,4-dihydroquinolin-1(2H)-yl)methanone] were, in that order, 100 to 1000 nM and under 500 nM.
As to `COC(=O)N1c2ccc(-c3cnn(C4CNC4)c3)c(Oc3ccccc3F)c2CC[C@@H]1C` [I-261, (S)-methyl 6-(1-(azetidin-3-yl)-1H-pyrazol-4-yl)-5-(2-fluorophenoxy)-2-methyl-3,4-dihydroquinoline-1(2H)-carboxylate], the values for the IC50 in test [1] and in test [2] were 100 to 1000 nM and under 500 nM, respectively.
As to `C[C@H]1CCc2c(ccc(-c3cnn(C4CCNCC4)c3)c2Oc2ccc(F)cc2F)N1C(=O)C1CC1` [I-264, (S)-cyclopropyl (5-(2,4-difluorophenoxy)-2-methyl-6-(1-(piperidin-4-yl)-1H-pyrazol-4-yl)-3,4-dihydroquinolin-1 (2H)-yl)methanone], the IC50 was 100 to 1000 nM in test [1] and under 500 nM in test [2].
The like results for `C[C@H]1CCc2c(ccc(-c3cnn(C4CNC4)c3)c2Oc2ccc(F)cc2F)N1C(=O)C1CC1` [I-265, (S)-(6-(1-(azetidin-3-yl)-1H-pyrazol-4-yl)-5-(2,4-difluorophenoxy)-2-methyl-3,4-dihydroquinolin-1(2H)-yl)(cyclopropyl)methanone] were, in that order, 100 to 1000 nM and under 500 nM.
As for `COC(=O)N1c2ccc(-c3cnn(C4CNC4)c3)c(Oc3ccc(F)cc3F)c2CC[C@@H]1C` [I-266, (S)-methyl 6-(1-(azetidin-3-yl)-1H-pyrazol-4-yl)-5-(2,4-difluorophenoxy)-2-methyl-3,4-dihydroquinoline-1(2H)-carboxylate], the IC50 in test [1] was 100 to 1000 nM; in test [2], under 500 nM.
The like results for `C[C@H]1CCc2c(ccc(-c3cnn(C4CCNCC4)c3)c2Oc2cccc(F)c2F)N1C(=O)C1CC1` [I-267, (S)-cyclopropyl(5-(2,3-difluorophenoxy)-2-methyl-6-(1-(piperidin-4-yl)-1H-pyrazol-4-yl)-3,4-dihydroquinolin-1(2H)-yl)methanone] were, in that order, 100 to 1000 nM and under 500 nM.
On to `COC(=O)N1c2ccc(-c3cnn(C4CCNCC4)c3)c(Oc3cccc(F)c3F)c2CC[C@@H]1C` [I-269, (S)-methyl 5-(2,3-difluorophenoxy)-2-methyl-6-(1-(piperidin-4-yl)-1H-pyrazol-4-yl)-3,4-dihydroquinoline-1(2H)-carboxylate], for which the IC50 in test [1] was 100 to 1000 nM; in test [2], under 500 nM.
Taken in the same sequence, the figures for `COC(=O)N1c2ccc(-c3cnn(C4CNC4)c3)c(Oc3cc(F)ccc3F)c2CC[C@@H]1C` [I-271, (S)-methyl 6-(1-(azetidin-3-yl)-1H-pyrazol-4-yl)-5-(2,5-difluorophenoxy)-2-methyl-3,4-dihydroquinoline-1(2H)-carboxylate] were 100 to 1000 nM and under 500 nM.
The like results for `C[C@H]1CCc2c(ccc(-c3cnn(C4CNC4)c3)c2Oc2cc(F)ccc2F)N1C(=O)C1CC1` [I-272, (S)-(6-(1-(azetidin-3-yl)-1H-pyrazol-4-yl)-5-(2,5-difluorophenoxy)-2-methyl-3,4-dihydroquinolin-1(2H)-yl)(cyclopropyl)methanone] were, in that order, 100 to 1000 nM and under 500 nM.
The like results for `COC(=O)N1c2ccc(-c3cnn(C4CCNCC4)c3)c(Oc3cc(F)ccc3F)c2CC[C@@H]1C` [I-273, (S)-methyl 5-(2,5-difluorophenoxy)-2-methyl-6-(1-(piperidin-4-yl)-1H-pyrazol-4-yl)-3,4-dihydroquinoline-1(2H)-carboxylate] were, in that order, 100 to 1000 nM and under 500 nM.
For the compound `C[C@H]1CCc2c(ccc(-c3cnn(C4CCNCC4)c3)c2Oc2cc(F)ccc2F)N1C(=O)C1CC1` [I-274, (S)-cyclopropyl(5-(2,5-difluorophenoxy)-2-methyl-6-(1-(piperidin-4-yl)-1H-pyrazol-4-yl)-3,4-dihydroquinolin-1 (2H)-yl)methanone], the IC50 in test [1] is 100 to 1000 nM; in test [2] it was under 500 nM.
